Test results from US8049020B2 (priority 2006, dated 2011).

Experiments:
murine splenocytes = assay: ConA mitogen-stimulated proliferation of murine splenocytes ([3H]-thymidine incorporation); type: cell-based, mouse (BALB/c); settings: for IC50: ConA 1 μg/ml, [3H]-thymidine incorporation, nonlinear regression, read-out: IC50 (dose of compound required to inhibit 50% of a proliferating population of murine splenocytes); for Effect on splenocyte proliferation (counts per minute vs concentration, FIG. 1 and 2): ConA-stimulated murine splenocytes, result in words
Experimental: I. ConA Mitogen-Stimulated Proliferation of Murine Splenocytes
The concanavalin A (ConA) cell proliferation assay was used to assess the effect of test homoserine lactone (HSL) compounds on T-cell activation and proliferation. Proliferation was assessed by the incorporation of [^3H]-thymidine into DNA. Eight-week-old female BALB/c mice were obtained from Harlan (Bicester, Oxon, UK) and given food and water ad libitum. Splenocyte suspensions were prepared by removing the spleens and placing them into RPMI 1640 medium. The spleens were forced through 70-μm-pore-size wire gauzes using the plunger from a 5-ml syringe to produce a single cell suspension. The cells were pelleted by centrifugation, and erythrocytes were lysed with 0.017 M Tris, 0.144 M ammonium chloride buffer, pH 7.2. Leucocytes were washed twice with RPMI 1640 medium with 2% (vol/vol) foetal calf serum (FCS) and resuspended in complete cell culture medium (CTCM) consisting of RPMI 1640 medium with 5% FCS, 2 mM L-glutamine, and 5×10^−5 M 2-mercaptoethanol. HSL compounds were tested at doubling down dilutions ranging from 1 mM to 0.1 μM in a final volume of 200 μl of CTCM, containing ConA (Sigma, Poole, UK) at 1 μg/ml and 100,000 spleen cells. Following incubation for 48 h at 37° C. in 5% CO2-air, 0.25 μCi[^3H]-thymidine (Amersham) in 10 μl volume made up in RPMI 1640 medium was added and the cells were incubated for a further 24 h. Cells were harvested onto fibreglass filters with a Packard filtermate harvester. After the addition of 25 μl of MicroScint-O (Packard) to each well, the filters were counted with the Packard TopCount scintillation counter.
Mitogen (Concanavalin A) induced murine splenocyte proliferation was indicated by the incorporation of tritated thymidine into the DNA in the mouse spleen cells as shown by counts per minute using the scintillation counter. The inhibitory effect of an HSL compound being tested on cell proliferation was indicated by a reduction in counts per minute.
The IC50 value, i.e. the dose of compound (micromolar) required to inhibit 50% of a proliferating population of murine splenocytes, was determined for 4-aza-OdDHL, 4-methyl-4-aza-OdDHL and for the compound N-(2-fluoro-4-aza-3-oxododecanoyl)-L-homoserine lactone (2-fluoro-4-aza-OdDHL).

[1] = tested on: E. coli JM109 harbouring the reporter plasmid pSB1075 (P. aeruginosa lasR gene and lasI promoter fused to luxCDABE); assay: Autoinducer activity: lux-based bioluminescence bioreporter assay; type: cell-based; settings: 10 μM compound; 4 hours at 37° C.; relative to OdDHL
Experimental: Also determined for each of these compounds was the autoinducer activity as a measure of the ability of the compound to induce light production in a specifically designed bacterial bioreporter system. Autoinducer (A.I.) activity was measured by the ability of the test N-acyl homoserine lactone compound (AHL) to induce bioluminescence in E. coli containing a lux-based bioluminescence reporter plasmid. For detection of a long chain AHL, such as OdDHL, E. coli JM109 harbouring the reporter plasmid pSB1075 was used. This reporter contains the P. aeruginosa IasR gene and IasI promoter fused to IuxCDABE from P. luminescens and preferentially responds to AHLs with acyl chains of 10-14 carbons in length.
Bioassays were performed in 96 well microliter plates. Briefly, 10 μl of the compound being assessed was placed into a microliter well plate and serially diluted using LB broth to produce a concentration range from 100 μM to 100 fM. Similar dilutions were performed on a synthetic OdDHL and used as a positive control. One hundred microliters of an overnight biosensor strain was added to each well and light emission was measured following 4 hours incubation at 37° C. Light production was assessed as counts per second on Perkin Elmer TopCount apparatus calibrated to measure bioluminescence. Values are expressed as a percentage of the bioluminescence measured after exposure of the bioreporter to OdDHL for four hours at 37° C. Logarithmic regression analysis of the range of synthetic OdDHL dilutions typically returned coefficient of determination values above 0.96.

murine spleen cells = settings: Infection and Immunity, vol. 66, No. 1, January 1998; cited from earlier work
[2] = tested on: LPS-stimulated adherent murine peritoneal macrophages (TNF-α production); settings: Infection and Immunity, vol. 66, No. 1, January 1998; cited from earlier work

Compound	IC50 (murine splenocytes)	AI activity (autoinducer activity, percentage of the bioluminescence measured after exposure to OdDHL) [1]	Effect on splenocyte proliferation (counts per minute vs concentration, FIG. 1 and 2) (murine splenocytes)	Effect on ConA mitogen stimulated proliferation of murine spleen cells (murine spleen cells)	Effect on TNF-α production by LPS-stimulated adherent murine peritoneal macrophages [2]
CCCCCCCCNC(=O)C(F)C(=O)N[C@H]1CCOC1=O (stereo partly drawn) [2-fluoro-4-aza-OdDHL, 4-Aza-2-fluoro-3-oxododecanoyl-L-homoserine lactone]	21.8 µM	19.9%	–	–	–
CCCCCCCCN(C)C(=O)CC(=O)N[C@H]1CCOC1=O [4-methyl-4-aza-OdDHL, N-(4-aza-4-methyl-3-oxododecanoyl)-L-homoserine lactone]	14.6 µM	23.2%	inhibits splenoctye proliferation	–	–
CCCCCCCCNC(=O)CC(=O)N[C@H]1CCOC1=O [Example 4-aza-OdDHL, N-(4-aza-3-oxododecanoyl)-L-homoserine lactone]	17.1 µM	2.8%	inhibits splenocyte proliferation	–	–
CCCCCCCCCC(=O)CC(=O)N[C@H]1CCOC1=O [OdDHL, N-(3-oxododecanoyl) homoserine lactone, reference compound]	12.7 µM	100.0%	inhibits splenocyte proliferation	inhibiting	inhibiting
